{"source": "patent US20190298664A1", "about": "“METHOD AND KIT FOR MYOCARDIAL REPERFUSION, AND METHOD FOR ATTENUATING OR REDUCING MYOCARDIAL REPERFUSION INJURY” (Academia Sinica, priority 2018, published 2019)", "key": {"PTP-PEST": {"target": "T1, PTP-PEST (Homo sapiens, UniProt Q05209)", "T1 construct": "PTP PEST Catalytic Domain construct (Amino Acid:1-300) with 6 His tag at N-terminal; 6 His (N, cleaved yes); made in house; host or cells: Sf9 insect cells (Sf9-VECL-01), Bac-to-Bac baculovirus system", "T1 sequence (Q05209 1-300)": "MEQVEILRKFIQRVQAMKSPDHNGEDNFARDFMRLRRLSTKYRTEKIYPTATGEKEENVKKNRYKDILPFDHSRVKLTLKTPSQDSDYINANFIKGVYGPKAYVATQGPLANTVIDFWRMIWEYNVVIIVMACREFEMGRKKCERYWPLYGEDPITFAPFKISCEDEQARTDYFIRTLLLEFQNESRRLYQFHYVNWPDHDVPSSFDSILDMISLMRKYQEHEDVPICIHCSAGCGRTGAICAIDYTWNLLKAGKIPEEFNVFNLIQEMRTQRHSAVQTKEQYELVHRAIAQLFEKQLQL", "test": "Thermal stability of PTP-PEST by differential scanning fluorimetry and differential scanning calorimetry", "conditions": "in the presence of Auranofin; apo form shows a single unfolding event"}, "[1]": {"tested_on": "overall PTP activity in H9C2 cells", "test": "Overall PTP activity (orthovanadate-sensitive fraction) by pNPP assay in H9C2 cells", "format": "cell-based", "conditions": "5, 10 and 20 μmol/L for 20 min", "protocol": "For heart tissue: At the end of the treatment, the left ventricle of mouse heart is gently homogenized in ice-cold RIPA buffer with Ser/Thr phosphatase inhibitors inside. Then the samples are centrifuged at 16,100×g for 10 min at 4° C. to remove the debris. Tissue extract (1 mg) is incubated with pNPP (2 mM) in reaction buffer at 37° C. for 60 min on a shaker. At the end of incubation, the reaction is terminated by addition of the same volume of 0.1 N NaOH. The released p-nitrophenolate ion is measured by spectrophotometry reading the absorbance at 405 nm. For H9C2 cell: At the end of the treatment, the cells are collected in ice-cold RIPA buffer with Ser/Thr phosphatase inhibitors inside. Then the samples are centrifuged at 16,100×g for 10 min at 4° C. to remove the debris. The cell lysate is incubated with pNPP […] in reaction buffer at 37° C. for 90 min on a shaker. The reaction is terminated by adding the same volume of 0.1 N NaOH. The released p-nitrophenolate ion is measured by spectrophotometry reading the absorbance at 405 nm. H9C2 cell lines were purchased from ATCC® organization, U.S. Cell cultures were maintained in Dulbecco modified Eagle medium (DMEM) supplemented with 10% fetal bovine serum (FBS) and 1% Penicillin/Streptomycin at 37° C. incubator in a 5% CO2 humid atmosphere."}, "[2]": {"tested_on": "phosphorylation of Paxillin and p130Cas in H9C2 cells", "test": "Immunoblotting of H9c2 total lysates for pTyr of Paxillin and p130Cas", "format": "cell-based", "conditions": "H9C2 cells treated with indicated concentrations", "protocol": "Hearts from mice received different treatment were gently homogenized in ice-cold RIPA buffer [250 mM Tris-HCl pH 7.4, 750 mM NaCl, detergent mix (5% NP-40, 2.5% Na-deoxycholate and 0.5% SDS), and 1× protease inhibitor cocktail (EDTA free)] containing phosphatase inhibitors (2 mM Na3VO4, 10 mM NaF, and 10 mM Na2P2O7). The homogenates were centrifuged at 16,100×g at 4° C. for 10 minutes to remove the debris. Protein concentrations were determined by Bradford protein assay. Equal amounts of protein extract from those mice were separated by SDS-PAGE on an 8% or 10% polyacrylamide gel and then transferred to PVDF membrane. Membranes were incubated with indicated primary antibody at 4° C. overnight followed by incubated with secondary antibodies for 1 hour at room temperature. The protein abundance was detected by the signal intensity of each specific band. H9C2 cell lines were purchased from ATCC® organization, U.S. Cell cultures were maintained in Dulbecco modified Eagle medium (DMEM) supplemented with 10% fetal bovine serum (FBS) and 1% Penicillin/Streptomycin at 37° C. incubator in a 5% CO2 humid atmosphere."}, "I/R mice": {"tested_on": "I/R mice", "test": "Serum troponin I measurement in I/R mice", "format": "in vivo, mouse", "conditions": "2 mg/kg IP", "protocol": "We anesthetized the mouse with 5% isoflurane mixed with room air until loss of sensation of pain and then maintained the mouse in anesthesia status with 2% isoflurane mixed with room air through the whole procedure. The mouse's body temperature was maintained at 37° C. by a heating pad. After the mouse was intubated, we provided artificial ventilation to the mouse with a small animal ventilator. Then the chest cavity was opened at the second intercostal space and homemade chest retractors were utilized to widen the incision. We pulled the pericardium apart carefully and exposed the left anterior descending artery (LAD). A 7-0 silk was put underneath the LAD at the position of the tip of the left auricle, a 6 mm length of PE-10 tube was put on the surface of the LAD, and then a double knot was made to occlude the blood flow of LAD. The success of ligation was confirmed by paling the anterior wall of the LV. For the reperfusion group, the LAD knot would be untied for the purpose of reperfusion after 1 hour of ischemia. For the sham operation group, all procedures were the same except for the knot that occluded the LAD flow. After the successful procedure, we left the silk in situ, closed the chest cavity and weaned the animal from the ventilator.\nBefore the mouse was sacrificed, blood was drawn from the facial vein. The blood was put in the room temperature for 30 minutes and then centrifuged at 4° C. for 15 minutes at 5000 rpm. After centrifuging, the serum is collected for troponin I measurement with troponin I ELISA kit (KT-469, Kamiya Biomedical Company) according to the manufacture's protocol."}}, "data": [{"smiles": "CC(=O)OC[C@H]1O[C@@H]([S-])[C@H](OC(C)=O)[C@@H](OC(C)=O)[C@@H]1OC(C)=O.CCP(CC)CC.[Au+]", "note": "[Auranofin, auranofin]", "values": [{"measurement": "Unfolding events of PTP-PEST (DSF and DSC)", "setting": "PTP-PEST", "value": "two unfolding events"}, {"measurement": "Overall PTP activity in H9C2 cells", "setting": "[1]", "value": "decreased"}, {"measurement": "Phosphorylation on the specific Tyr residue in Paxillin or p130Cas", "setting": "[2]", "value": "increase"}, {"measurement": "Serum troponin I level", "setting": "I/R mice; 4 hours post-I/R", "value": "reduced"}, {"measurement": "Serum troponin I level", "setting": "I/R mice; one day after reperfusion", "value": "lower"}]}]}
